Molecules are shown by their SMILES.

This note sets out measurements from paper PMC11923649, “Novel C-2 Aromatic Heterocycle-Substituted Triterpenoids Inhibit Hedgehog Signaling in GLI1 Overexpression Cancer Cells” (ACS Omega, 2025).

For data set [1], the system named is Caco-2 monolayer. As to the kind of experiment: Caco-2 permeability assay. It counts as in vitro ADME. The source says:
(§1) The Parallel Artificial Membrane Permeability Assay (PAMPA) has emerged as a primary screen for determining passive transcellular permeability. […] The Caco-2 and MDCK-MDR1 permeability assays are established models of intestinal[37] and blood-brain barriers, respectively.[38]

For data set [2], the system named is MDR1. Kind of data set: Caco-2 permeability assay. It counts as in vitro ADME. The following applies: human, Caco-2; B–A / A–B.
Source text: as §1

Data set [3] can be described thus: Caco-2 permeability assay. Particulars: human, Caco-2; for Papp A→B: cm/s, read-out: Caco-2 Papp (×10^−6). Type of data set: in vitro ADME.
Source text: as §1

In data set [4] the test system is K562-TAX. As to the kind of experiment: MTS cytotoxicity assay, 72 h, K562-TAX. Type of data set: cell-based.
The subject of data set [5] is HCT 116. Kind of data set: MTS cytotoxicity assay, 72 h, HCT 116. Type of data set: cell-based. The following applies: Homo sapiens, HCT-116, 72 h. The essentials:
(§2)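 Cells were exposed to compounds for 72 h at 50–0.0975 μmol/L (2-fold dilutions), then MTS/phenazine methosulfate was added for 1–4 h. Absorbance read at 490 nm; IC50 derived from concentration-response.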

Data set [6] concerns U-87 MG-Gli-FLuc cells. Kind of data set: MTS viability assay run in parallel with U-87 MG-Gli-FLuc reporter assay. Type of data set: cell-based, human. The following applies: up to a dose of 6.25 μmol/L, 24 h. How it is done:
A possible direct inhibition of the reporter (Fluc) and luminescence itself, which could lead to false positive results, was also ruled out in a cellular as well as a noncellular model (data not shown).
Figure 1 Effect of compounds 11a, 11b, and positive control GANT-61 on Gli1 activation and cell viability measured using the U-87 MG-Gli-FLuc reporter assay. Data are expressed as percentages of control (100%) and represent the mean of three independent experiments with the standard deviation. To distinguish specific inhibition of Gli activation from a nonspecific cellular response, an MTS assay was performed simultaneously under the same conditions in 96-well transparent plates. Statistical analysis of Gli1 activity was performed using one-sample Student’s t-test (mu = 100): *, p < 0.05; **, p < 0.01. The same analysis was used to assess cytotoxicity by MTS assay: #, p < 0.05; ##, p < 0.01.
The U-87 MG-Gli-FLuc reporter cell line was developed from the human glioblastoma line U-87 MG obtained from ATCC and cultured in EMEM medium supplemented with 10% FBS, 1 mmol/L sodium pyruvate, and a 1 mmol/L nonessential amino acid mixture. […] Panels were placed on a shaker to achieve complete cell lysis, and luminescence was measured after 3 min using an EnVision plate reader.

The test system of data set [7] is CCRF-CEM. As to the kind of experiment: MTS cytotoxicity assay, 72 h, CCRF-CEM. Type of data set: cell-based. The following applies: Table 1; for IC50: Homo sapiens, CCRF-CEM, 72 h, MTS; for SI (selectivity index): IC50 of CCRF-CEM line vs average of both fibroblasts (BJ and MRC-5). The essentials: as §2
In data set [8] the test system is U2OS. Kind of data set: MTS cytotoxicity assay, 72 h, U2OS. The following applies: Homo sapiens. Type of data set: cell-based.
Data set [9] has as its system A549 (lung adenocarcinoma). As to the kind of experiment: MTS cytotoxicity assay, 72 h, A549. It counts as cell-based. The following applies: Homo sapiens, A549, 72 h. The essentials:
as §2

For the molecule `C=C(C)[C@@H]1CC[C@]2(C(=O)O)CC[C@]3(C)C(CCC4[C@@]5(C)C=C(c6ccoc6)C(=O)C(C)(C)C5CC[C@]43C)C12` (stereo partly drawn) [Compound 11b, 2-(Furan-3-yl)-3-oxolupa-1,20(29)-dien-28-oic acid], the “Caco-2 Active efflux” value in data set [1] was “No (less than or very close to the limit of active and passive efflux (≤2))”. Moreover, the efflux ratio in [2] worked out at 1.77. The molecule further had a recovery in data set [3] of 58.2%. Moreover, the Papp A→B in data set [3] is 1.07 ×10⁻⁶ cm/s. The IC50 was found to be 16 µM in data set [4] (Table 1); 15.8 µM in data set [4] (full Table S1); 20 µM in data set [5] (Table 1); 19.9 µM in data set [5] (full Table S1); 6 µM in [7]; 26 µM in data set [8] (Table 1). Also, the IC50 in data set [8] (full Table S1) worked out at 26.3 µM; in data set [9] (Table 1), 12 µM; in [9] (full Table S1), 12.1 µM. In addition, the “Inhibition of proliferation or cell death induction (MTS) under reporter conditions” value in [6] is “not accompanied by inhibition of proliferation or cell death induction”. In addition, the “SI (selectivity index)” value in data set [7] came out at 5.

In the case of `C=C(C)[C@@H]1CC[C@]2(C(=O)O)CC[C@]3(C)C(CCC4[C@@]5(C)C=C(c6ccco6)C(=O)C(C)(C)C5CC[C@]43C)C12` (stereo partly drawn) [Compound 11a, 2-(Furan-2-yl)-3-oxolupa-1,20(29)-dien-28-oic acid], the “Caco-2 Active efflux” value in data set [1] was “Yes”. Besides, the efflux ratio in [2] turned out to be 2.33. Besides, in data set [3], the recovery was 68.5%. In data set [3], the Papp A→B is 0.44 ×10⁻⁶ cm/s. For the same molecule, the IC50 in data set [4] (Table 1) turned out to be 14 µM; in data set [4] (full Table S1), 13.7 µM; in [5] (Table 1), 11 µM; in data set [5] (full Table S1) it was 11.4 µM; in [7], 8.7 µM; in data set [8] (Table 1) it was 21 µM. Moreover, the figures for the IC50 in data set [8] (full Table S1), in [9] (Table 1) and in data set [9] (full Table S1) were 20.9 µM, 12 µM and 12.1 µM, respectively. Further, the “Inhibition of proliferation or cell death induction (MTS) under reporter conditions” value in data set [6] is “not accompanied by inhibition of proliferation or cell death induction”. Further, in data set [7], the “SI (selectivity index)” value is 3.8.
